Experimental data published in patent US8993542B2, “Methods of treating viral infections” (priority 2008, dated 2015).

Tested on: HIV-1IIIB
Assay: TCID50 determination of drug-treated HIV-1IIIB
Type: cell-based
Parameters: TCID50, XTT Endpoint / TCID50, RT Endpoint / TCID50, P24 Endpoint: unit not given here
[1] = 500 nM, compound removal at 60 minutes
[2] = 500 nM, compound removal at 120 minute
[3] = virus treated 15 minutes with 0.039 nM drug
[4] = virus treated 15 minutes with 0.125 nM drug
[5] = virus treated 15 minutes with 0.39 nM drug
[6] = virus treated 15 minutes with 1.25 nM drug
[7] = virus treated 15 minutes with 3.9 nM drug
[8] = virus treated 15 minutes with 12.5 nM drug
[9] = virus treated 15 minutes with 39.1 nM drug
[10] = virus treated 15 minutes with 125 nM drug
[11] = virus treated 2 hours with 125 nM drug
[12] = virus treated 2 hours with 250 nM drug
[13] = virus treated 2 hours with 500 nM drug
[14] = virus treated 2 hours with 1000 nM drug

Structure (SMILES): CCCCCCCCCCCCCCCCOCCCOP(=O)(O)CO[C@H](C)Cn1cnc2c(N)ncnc21 [CMX157, Hexadecyloxypropyl-9-R-[2-(Phosphonomethoxy)Propyl]-Adenine]
- TCID50, RT Endpoint [1]: 25588
- TCID50, XTT Endpoint [1]: 1600
- Fold Decrease From VC, P24 Endpoint [2]: (5.7) Fold
- Fold Decrease From VC, RT Endpoint [2]: (3.2) Fold
- Fold Decrease From VC, XTT Endpoint [2]: (4.0) Fold
- TCID50, P24 Endpoint [2]: 6398
- TCID50, RT Endpoint [2]: 25588
- TCID50, XTT Endpoint [2]: 1132
- concentrations resulting in reduced infectivity (15 minutes incubation): ≥ 3.9 nM
- reduction of viral replication (1000, 500, 250 or 125 nM, 2 hours): 2-4 fold
- Fold Decrease From VC, P24 Endpoint [3]: (0) Fold
- Fold Decrease From VC, RT Endpoint [3]: (1.0) Fold
- Fold Decrease From VC, XTT Endpoint [3]: (1.1) Fold
- TCID50, P24 Endpoint [3]: 36337
- TCID50, RT Endpoint [3]: 157772
- TCID50, XTT Endpoint [3]: 16145
- Fold Decrease From VC, P24 Endpoint [4]: (0) Fold
- Fold Decrease From VC, RT Endpoint [4]: (1.1) Fold
- Fold Decrease From VC, XTT Endpoint [4]: (1.1) Fold
- TCID50, P24 Endpoint [4]: 30411
- TCID50, RT Endpoint [4]: 144887
- TCID50, XTT Endpoint [4]: 16145
- Fold Decrease From VC, P24 Endpoint [5]: (1.4) Fold
- Fold Decrease From VC, RT Endpoint [5]: (1.6) Fold
- Fold Decrease From VC, XTT Endpoint [5]: (1.4) Fold
- TCID50, P24 Endpoint [5]: 21529
- TCID50, RT Endpoint [5]: 102336
- TCID50, XTT Endpoint [5]: 12795
- Fold Decrease From VC, P24 Endpoint [6]: (0) Fold
- Fold Decrease From VC, RT Endpoint [6]: (1.6) Fold
- Fold Decrease From VC, XTT Endpoint [6]: (2.0) Fold
- TCID50, P24 Endpoint [6]: 30411
- TCID50, RT Endpoint [6]: 102336
- TCID50, XTT Endpoint [6]: 9058
- Fold Decrease From VC, P24 Endpoint [7]: (2.0) Fold
- Fold Decrease From VC, RT Endpoint [7]: (1.6) Fold
- Fold Decrease From VC, XTT Endpoint [7]: (4.0) Fold
- TCID50, P24 Endpoint [7]: 15207
- TCID50, RT Endpoint [7]: 102336
- TCID50, XTT Endpoint [7]: 4529
- Fold Decrease From VC, P24 Endpoint [8]: (5.6) Fold
- Fold Decrease From VC, RT Endpoint [8]: (1.6) Fold
- Fold Decrease From VC, XTT Endpoint [8]: (4.0) Fold
- TCID50, P24 Endpoint [8]: 5383
- TCID50, RT Endpoint [8]: 102336
- TCID50, XTT Endpoint [8]: 4529
- Fold Decrease From VC, P24 Endpoint [9]: (4.0) Fold
- Fold Decrease From VC, RT Endpoint [9]: (2.5) Fold
- Fold Decrease From VC, XTT Endpoint [9]: (3.6) Fold
- TCID50, P24 Endpoint [9]: 7604
- TCID50, RT Endpoint [9]: 64570
- TCID50, XTT Endpoint [9]: 5082
- Fold Decrease From VC, P24 Endpoint [10]: (4.0) Fold
- Fold Decrease From VC, RT Endpoint [10]: (2.5) Fold
- Fold Decrease From VC, XTT Endpoint [10]: (4.5) Fold
- TCID50, P24 Endpoint [10]: 7604
- TCID50, RT Endpoint [10]: 64570
- TCID50, XTT Endpoint [10]: 4027
- Fold Decrease From VC, P24 Endpoint [11]: (4.0) Fold
- Fold Decrease From VC, RT Endpoint [11]: (1.6) Fold
- Fold Decrease From VC, XTT Endpoint [11]: (4.0) Fold
- TCID50, P24 Endpoint [11]: 9058
- TCID50, RT Endpoint [11]: 51172
- TCID50, XTT Endpoint [11]: 1132
- Fold Decrease From VC, P24 Endpoint [12]: (3.4) Fold
- Fold Decrease From VC, RT Endpoint [12]: (3.2) Fold
- Fold Decrease From VC, XTT Endpoint [12]: (4.0) Fold
- TCID50, P24 Endpoint [12]: 10765
- TCID50, RT Endpoint [12]: 25588
- TCID50, XTT Endpoint [12]: 1132
- Fold Decrease From VC, P24 Endpoint [13]: (4.8) Fold
- Fold Decrease From VC, RT Endpoint [13]: (2.2) Fold
- Fold Decrease From VC, XTT Endpoint [13]: (4.0) Fold
- TCID50, P24 Endpoint [13]: 7604
- TCID50, RT Endpoint [13]: 36227
- TCID50, XTT Endpoint [13]: 1132
- Fold Decrease From VC, P24 Endpoint [14]: (4.8) Fold
- Fold Decrease From VC, RT Endpoint [14]: (2.2) Fold
- Fold Decrease From VC, XTT Endpoint [14]: (4.0) Fold
- TCID50, P24 Endpoint [14]: 7604
- TCID50, RT Endpoint [14]: 36227
- TCID50, XTT Endpoint [14]: 1132
